Assays:
Settings in all cases: incubation time: 72 h
[1] = tested on: CAL-120; experiment: normalised response (% of control), CellTiter-Glo; higher = more viable cells (100 = DMSO, 0 = benzethonium chloride kill control)
Procedure, shortened: (§1)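 The table gives the normalised signal for a single concentration in each entry. Breast cancer cell lines were seeded (20 µl suspension) into 384-well plates holding compound at 5 concentrations in 10-fold steps over a compound-specific 10,000-fold range and incubated 72 h, then read for CellTox Green fluorescence (485/520 nm) and CellTiter-Glo luminescence. Normalisation on each plate used 0.1 % DMSO (100) and a positive kill control (0).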

[2] = tested on: BT-549; experiment: as above
Procedure, shortened: as §1

[3] = tested on: MFM-223; experiment: as above
Procedure, shortened: as §1

[4] = tested on: MDA-MB-468; experiment: as above
Procedure, shortened: as §1

[5] = tested on: HCC1937; experiment: as above
Procedure, shortened: as §1

[6] = tested on: MDA-MB-453; experiment: as above
Procedure, shortened: as §1

[7] = tested on: Hs578T; experiment: as above
Procedure, shortened: as §1

[8] = tested on: MDA-MB-231; experiment: as above
Procedure, shortened: as §1

[9] = tested on: CAL-51; experiment: as above
Procedure, shortened: as §1

[10] = tested on: CAL-148; experiment: as above
Procedure, shortened: as §1

[11] = tested on: DU-4475; experiment: as above
Procedure, shortened: as §1

[12] = tested on: CAL-85-1; experiment: as above
Procedure, shortened: as §1

[13] = tested on: HDQ-P1; experiment: as above
Procedure, shortened: as §1

[14] = tested on: MCF-10A; experiment: as above
Procedure, shortened: as §1

[15] = tested on: BT-474; experiment: as above
Procedure, shortened: as §1

[16] = tested on: SK-BR-3; experiment: as above
Procedure, shortened: as §1

[17] = tested on: MDA-MB-436; experiment: as above
Procedure, shortened: as §1

[18] = tested on: HCC1599; experiment: as above
Procedure, shortened: as §1

[19] = tested on: HCC1143; experiment: as above
Procedure, shortened: as §1

[20] = tested on: CAL-120; experiment: normalised response (% of control), CellTox Green; higher = less cell death (100 = DMSO, 0 = benzethonium chloride kill control)
Procedure, shortened: as §1

[21] = tested on: BT-549; experiment: as above
Procedure, shortened: as §1

[22] = tested on: MFM-223; experiment: as above
Procedure, shortened: as §1

[23] = tested on: MDA-MB-468; experiment: as above
Procedure, shortened: as §1

[24] = tested on: HCC1937; experiment: as above
Procedure, shortened: as §1

[25] = tested on: MDA-MB-453; experiment: as above
Procedure, shortened: as §1

[26] = tested on: Hs578T; experiment: as above
Procedure, shortened: as §1

[27] = tested on: MDA-MB-231; experiment: as above
Procedure, shortened: as §1

[28] = tested on: CAL-51; experiment: as above
Procedure, shortened: as §1

[29] = tested on: CAL-148; experiment: as above
Procedure, shortened: as §1

[30] = tested on: DU-4475; experiment: as above
Procedure, shortened: as §1

[31] = tested on: CAL-85-1; experiment: as above
Procedure, shortened: as §1

[32] = tested on: HDQ-P1; experiment: as above
Procedure, shortened: as §1

[33] = tested on: MCF-10A; experiment: as above
Procedure, shortened: as §1

[34] = tested on: BT-474; experiment: as above
Procedure, shortened: as §1

[35] = tested on: MDA-MB-436; experiment: as above
Procedure, shortened: as §1

[36] = tested on: HCC1599; experiment: as above
Procedure, shortened: as §1

[37] = tested on: HCC1143; experiment: as above
Procedure, shortened: as §1

With `C[C@]12C=CC(=O)C=C1CC[C@@H]1[C@@H]2[C@@H](O)C[C@@]2(C)[C@H]1CC[C@]2(O)C(=O)CO` [Prednisolone] (100 nM) the normalised response [1] was 87.4%, the normalised response [2] was 96% and the normalised response [3] was 110%. For the same compound, the normalised response [4] was 109%, the normalised response [5] was 103% and the normalised response [6] was 95%. It also gave a normalised response [7] of 113%, a normalised response [8] of 146% and a normalised response [9] of 112%. For the same compound, the normalised response [10] was 114%, the normalised response [11] was 106% and the normalised response [12] was 109%. It also gave a normalised response [13] of 89.3%, a normalised response [14] of 102% and a normalised response [15] of 146%. For the same compound, the normalised response [16] was 104%, the normalised response [17] was 101% and the normalised response [18] was 105%. For the same compound, the normalised response [19] was 102%, the normalised response [20] was 102% and the normalised response [21] was 97.2%. It also gave a normalised response [22] of 96.1%, a normalised response [23] of 108% and a normalised response [24] of 115%. It also gave a normalised response [25] of 104%, a normalised response [26] of 110% and a normalised response [27] of 134%. The normalised response [28] was 117%, the normalised response [29] was 103% and the normalised response [30] was 98.8%. It also gave a normalised response [31] of 85.8%, a normalised response [32] of 106% and a normalised response [33] of 95.5%. For the same compound, the normalised response [34] was 101%, the normalised response [35] was 89.9% and the normalised response [36] was 103%. The normalised response [37] was 118%.
`O=C(Nc1c[nH]nc1-c1nc2ccc(CN3CCOCC3)cc2[nH]1)NC1CC1` [AT9283] (10 nM) showed a normalised response [1] of 103%, a normalised response [2] of 94.1% and a normalised response [3] of 98.2%. It also gave a normalised response [4] of 96.6%, a normalised response [5] of 98.1% and a normalised response [6] of 97.1%. It also gave a normalised response [7] of 101%, a normalised response [8] of 100% and a normalised response [9] of 67.3%. It also gave a normalised response [10] of 105%, a normalised response [11] of 101% and a normalised response [12] of 94.8%. The normalised response [13] was 101%, the normalised response [14] was 96.9% and the normalised response [15] was 93.8%. The normalised response [16] was 93.5%, the normalised response [17] was 105% and the normalised response [18] was 95.2%. The normalised response [19] was 109%, the normalised response [20] was 97.7% and the normalised response [21] was 105%. The normalised response [22] was 53.1%, the normalised response [24] was 123% and the normalised response [25] was 103%. It also gave a normalised response [26] of 89.3%, a normalised response [27] of 98.2% and a normalised response [28] of 61.2%. For the same compound, the normalised response [29] was 106%, the normalised response [30] was 101% and the normalised response [31] was 102%. For the same compound, the normalised response [32] was 115%, the normalised response [33] was 91.8% and the normalised response [34] was 102%. The normalised response [35] was 103%, the normalised response [36] was 115% and the normalised response [37] was 108%.
`Cc1ccc(Nc2nccc(N(C)c3ccc4c(C)n(C)nc4c3)n2)cc1S(N)(=O)=O` [Pazopanib] (100 nM) gave a normalised response [1] of 95.9%, a normalised response [2] of 102% and a normalised response [3] of 103%. It also gave a normalised response [4] of 104%, a normalised response [5] of 99% and a normalised response [6] of 108%. For the same compound, the normalised response [7] was 103%, the normalised response [8] was 98.7% and the normalised response [9] was 96.7%. The normalised response [10] was 112%, the normalised response [11] was 100% and the normalised response [12] was 104%. For the same compound, the normalised response [13] was 101%, the normalised response [14] was 97.3% and the normalised response [15] was 107%. It also gave a normalised response [16] of 100%, a normalised response [17] of 103% and a normalised response [18] of 103%. It also gave a normalised response [19] of 105%, a normalised response [20] of 95% and a normalised response [21] of 98.1%. The normalised response [22] was 104%, the normalised response [24] was 66.2% and the normalised response [25] was 97.4%. The normalised response [26] was 107%, the normalised response [27] was 100% and the normalised response [28] was 104%. It also gave a normalised response [29] of 96%, a normalised response [30] of 101% and a normalised response [31] of 103%. For the same compound, the normalised response [32] was 109%, the normalised response [33] was 72.7% and the normalised response [34] was 96.2%. For the same compound, the normalised response [35] was 94.2%, the normalised response [36] was 112% and the normalised response [37] was 98%.
`Nc1cccc2c1CN(C1CCC(=O)NC1=O)C2=O` (stereo unspecified) [Lenalidomide] (100 nM) showed a normalised response [1] of 93.3%, a normalised response [2] of 103% and a normalised response [3] of 103%. The normalised response [4] was 111%, the normalised response [5] was 95.3% and the normalised response [6] was 103%. It also gave a normalised response [7] of 101%, a normalised response [8] of 94.3% and a normalised response [9] of 69.2%. The normalised response [10] was 105%, the normalised response [11] was 104% and the normalised response [12] was 100%. It also gave a normalised response [13] of 102%, a normalised response [14] of 99.3% and a normalised response [15] of 103%. For the same compound, the normalised response [16] was 98.4%, the normalised response [17] was 93.2% and the normalised response [18] was 111%. The normalised response [19] was 99.1%, the normalised response [20] was 97.4% and the normalised response [21] was 99.6%. The normalised response [22] was 107%, the normalised response [23] was 102% and the normalised response [25] was 100%. For the same compound, the normalised response [26] was 109%, the normalised response [27] was 105% and the normalised response [28] was 76.4%. It also gave a normalised response [29] of 104%, a normalised response [30] of 101% and a normalised response [31] of 101%. The normalised response [32] was 100%, the normalised response [33] was 77.9% and the normalised response [34] was 101%. For the same compound, the normalised response [35] was 107%, the normalised response [36] was 107% and the normalised response [37] was 92.4%.
Compound `Nc1ccccc1NC(=O)c1ccc(CNc2nccc(-c3cccnc3)n2)cc1` [Mocetinostat] (100 nM) has a normalised response [1] of 102%, a normalised response [2] of 106% and a normalised response [3] of 92.6%. It also gave a normalised response [4] of 90.6%, a normalised response [5] of 86.1% and a normalised response [6] of 99.4%. The normalised response [7] was 93.2%, the normalised response [8] was 97.5% and the normalised response [9] was 78.3%. The normalised response [10] was 99%, the normalised response [11] was 107% and the normalised response [12] was 93.3%. The normalised response [13] was 88.7%, the normalised response [14] was 157% and the normalised response [15] was 91.5%. It also gave a normalised response [16] of 115%, a normalised response [17] of 90.7% and a normalised response [18] of 97.2%. For the same compound, the normalised response [19] was 102%, the normalised response [20] was 93.3% and the normalised response [21] was 99.1%. For the same compound, the normalised response [22] was 97.5%, the normalised response [23] was 104% and the normalised response [25] was 98.1%. It also gave a normalised response [26] of 112%, a normalised response [27] of 89.2% and a normalised response [28] of 82%. For the same compound, the normalised response [30] was 99.1%, the normalised response [31] was 97.4% and the normalised response [32] was 104%. The normalised response [33] was 93.1%, the normalised response [34] was 99.1% and the normalised response [35] was 96.4%. For the same compound, the normalised response [36] was 95.8% and the normalised response [37] was 101%.
Compound `CO[C@@H](C(=O)N1Cc2[nH]nc(NC(=O)c3ccc(N4CCN(C)CC4)cc3)c2C1)c1ccccc1` [Danusertib] (100 nM) has a normalised response [1] of 89%, a normalised response [2] of 92.7% and a normalised response [3] of 67.1%. For the same compound, the normalised response [4] was 50.5%, the normalised response [5] was 96.8% and the normalised response [6] was 133%. The normalised response [7] was 97%, the normalised response [8] was 94.8% and the normalised response [9] was 82.5%. It also gave a normalised response [10] of 57.7%, a normalised response [11] of 100% and a normalised response [12] of 95.5%. The normalised response [13] was 96.4%, the normalised response [14] was 84.6% and the normalised response [15] was 98.6%. For the same compound, the normalised response [16] was 82.5%, the normalised response [17] was 101% and the normalised response [18] was 105%. It also gave a normalised response [19] of 91.4%, a normalised response [20] of 97.5% and a normalised response [21] of 101%. It also gave a normalised response [22] of 104%, a normalised response [23] of 69.6% and a normalised response [24] of 93.8%. The normalised response [25] was 97.7%, the normalised response [26] was 98.2% and the normalised response [28] was 62.2%. It also gave a normalised response [29] of 69.4%, a normalised response [30] of 97.1% and a normalised response [31] of 86.5%. It also gave a normalised response [32] of 109%, a normalised response [33] of 108% and a normalised response [34] of 99%. It also gave a normalised response [35] of 98.2%, a normalised response [36] of 102% and a normalised response [37] of 111%.
